Data: patent US20240099214A1, “PLANT DEFENCE GENE EXPRESSION” (UPL Corporation Limited, priority 2021, published 2024)

Experiments:
[1] = system: AP2-like-ethylene-responsive transcription factor (gene 4, Solyc11g072600.1); assay: qRT-PCR expression of gene 4 in tomato leaves; type: in vivo, Tomato ecotype corbarino; set-up: key: relative expression normalized to a-tubulin housekeeping gene
Method: (§1) Tomato ecotype “corbarino” reported to be susceptible to TSWV infection was used in the experiment. Plants were grown in pots in a climatic chamber with a photoperiod of 16/8 hour at 25° C.
(§2) The viral strain (TSWV PV PV-0393) was utilized in the experiment. The virus was mechanically inoculated and propagated on tomato “corbarino”. The inoculum was prepared in an ice-cooled mortar grounding 1 gr of infected tomato tissue in 10 ml of Na-phosphate buffer 0.01M. The fresh prepared inoculum was stored in ice before use. Tomato plants at BBCH16 were dusted with Carborundum 600 mesh and selected leaves were rubbed with some droplets of inoculum. After 5 min. plants were sprayed with sterile water to remove the excess of inoculum and preserve the cell turgor.
(§3) Four treatments were compared: i) Mock inoculated; ii) TSWV; iii) 0.25% Laminarin; iv) 0.25% Laminarin+TSWV. In the last treatment the virus was inoculated 24 hrs after the laminarin application.
(§4) Total RNA was extracted from systemic infected tomato leaves by using the Quick-RNA Plant Kit (Zymo Research) following the manufacturer instructions. The extractions were carried out using three plants after 12 h, 24 h, 48 h, 72 h, 7 days after inoculation. Leaves were instantly frozen in liquid nitrogen after cutting to avoid any deterioration of the sample as well as any defense reaction. The RNA concentration was quantified by measuring the absorbance at 260 nm using a Nanodrop 2000 (Thermofisher). The purity of all of the RNA samples was assessed at an absorbance ratio of OD260/280 and OD260/230, while its structural integrity was checked by agarose gel electrophoresis. Only high-quality RNA with OD 260/280 and OD 260/230>2 was used for subsequent steps. Single-stranded cDNA was synthesized from 1 μg of total RNA using an iScript™ Select cDNA Synthesis Kit and random hexamers as primers (Bio-Rad, Milan, Italy), according to the manufacturer's instructions. Three biological replicates were created from the 3 leaves collected to test 15 genes. Alpha tubulin was used as reference gene.
(§5) qPCR reactions were performed with BioRad (Applied Biosystems, Foster City, CA, USA) using SYBR R Green. Each reaction was performed in 20 μl containing 10 μl of 2× Power SYBR Green PCR Master Mix (Life Technologies), 0.2-0.3 μM primers and cDNA samples diluted 1:20. Each qPCR reaction was performed in triplicate. Reactions were run using the cycling parameter described previously (Reid et al., 2006) and the qPCR data were analyzed by the Ct method (Pfaffl, 2001). In order to analyze the qPCR data, a-tubulin gene was used as housekeeping to determine the relative expression level of the other genes analyzed in this work. For the determination of qPCR efficiency of each primer pairs, a standard curve was performed using the following cDNA dilutions: 1:4, 1:16, 1:64; 1:256 and 1:1024. Every measurement was made in triplicate. The corresponding qPCR efficiencies (E) were calculated for every primer pair with the software 7300 System SDS software (Applied Biosystems, Foster City, CA, USA) according to the equation E=(10−1/slope−1)×100 (Rutledge and Stewart, 2008).
(§6) The significance of the differences between the gene expressions levels were compared by one-way ANOVA (p=0.01) and the means were separated by Tukey post-hoc test using SPSS ver.26 ([…]).

[2] = system: Subtilisin-like protease-like (gene 9, Solyc01g087800.2); assay: qRT-PCR expression of gene 9 in tomato leaves; type: in vivo, Tomato ecotype corbarino; set-up: key to RQ1 / RQ2 / RQ3 / RQ mean: relative expression normalized to a-tubulin housekeeping gene
Method: as §1, §2, §3, §4, §5, §6

For laminarin, the RQ1 ([1]; 12 hr, Laminarin + virus) was 12.523, the RQ2 ([1]; 12 hr, Laminarin + virus) was 0.9104 and the RQ3 ([1]; 12 hr, Laminarin + virus) was 10.299. The RQ mean ([1]; 12 hr, Laminarin + virus) was 10.642, the RQ1 ([1]; 12 hr, Laminarin alone) was 0.9931 and the RQ2 ([1]; 12 hr, Laminarin alone) was 0.9090. The RQ3 ([1]; 12 hr, Laminarin alone) was 0.7654, the RQ mean ([1]; 12 hr, Laminarin alone) was 0.8892 and the RQ1 ([1]; 24 hr, Laminarin + virus) was 1.250. The RQ2 ([1]; 24 hr, Laminarin + virus) was 1.754, the RQ3 ([1]; 24 hr, Laminarin + virus) was 1.545 and the RQ mean ([1]; 24 hr, Laminarin + virus) was 1.516. The RQ1 ([1]; 24 hr, Laminarin alone) was 1.744, the RQ2 ([1]; 24 hr, Laminarin alone) was 1.728 and the RQ3 ([1]; 24 hr, Laminarin alone) was 1.516. It also gave an RQ mean ([1]; 24 hr, Laminarin alone) of 1.662, an RQ1 ([1]; 48 hr, Laminarin + virus) of 13.802 and an RQ2 ([1]; 48 hr, Laminarin + virus) of 15.313. The RQ3 ([1]; 48 hr, Laminarin + virus) was 21.904, the RQ mean ([1]; 48 hr, Laminarin + virus) was 17.006 and the RQ1 ([1]; 48 hr, Laminarin alone) was 15.231. For the same substance, the RQ2 ([1]; 48 hr, Laminarin alone) was 15.784, the RQ3 ([1]; 48 hr, Laminarin alone) was 37.709 and the RQ mean ([1]; 48 hr, Laminarin alone) was 22.908. For the same substance, the RQ1 ([1]; 72 hr, Laminarin + virus) was 35.424, the RQ2 ([1]; 72 hr, Laminarin + virus) was 26.180 and the RQ3 ([1]; 72 hr, Laminarin + virus) was 29.297. It also gave an RQ mean ([1]; 72 hr, Laminarin + virus) of 30.301, an RQ1 ([1]; 72 hr, Laminarin alone) of 25.807 and an RQ2 ([1]; 72 hr, Laminarin alone) of 30.148. For the same substance, the RQ3 ([1]; 72 hr, Laminarin alone) was 26.311, the RQ mean ([1]; 72 hr, Laminarin alone) was 27.422 and the RQ1 ([2]; 12 hr, Laminarin + virus) was 0.9838. For the same substance, the RQ2 ([2]; 12 hr, Laminarin + virus) was 0.8556, the RQ3 ([2]; 12 hr, Laminarin + virus) was 10.797 and the RQ mean ([2]; 12 hr, Laminarin + virus) was 0.9730. It also gave an RQ1 ([2]; 12 hr, Laminarin alone) of 0.8527, an RQ2 ([2]; 12 hr, Laminarin alone) of 0.8398 and an RQ3 ([2]; 12 hr, Laminarin alone) of 10.240. For the same substance, the RQ mean ([2]; 12 hr, Laminarin alone) was 0.9055, the RQ1 ([2]; 24 hr, Laminarin + virus) was 0.8394 and the RQ2 ([2]; 24 hr, Laminarin + virus) was 10.098. The RQ3 ([2]; 24 hr, Laminarin + virus) was 11.565, the RQ mean ([2]; 24 hr, Laminarin + virus) was 10.019 and the RQ1 ([2]; 24 hr, Laminarin alone) was 13.867. The RQ2 ([2]; 24 hr, Laminarin alone) was 0.9303, the RQ3 ([2]; 24 hr, Laminarin alone) was 10.466 and the RQ mean ([2]; 24 hr, Laminarin alone) was 11.212. The “gene 9 expression compared to TSWV treatment” value ([2]; 48 hr, 0.25% laminarin + TSWV inoculated 24 hrs later) was “inverted”, the “gene 9 expression compared to TSWV treatment” value ([2]; 48 hr, 0.25% laminarin alone) was “inverted” and the RQ1 ([2]; 48 hr, Laminarin + virus) was 15.088. It also gave an RQ2 ([2]; 48 hr, Laminarin + virus) of 17.637, an RQ3 ([2]; 48 hr, Laminarin + virus) of 13.474 and an RQ mean ([2]; 48 hr, Laminarin + virus) of 15.400. It also gave an RQ1 ([2]; 48 hr, Laminarin alone) of 16.481, an RQ2 ([2]; 48 hr, Laminarin alone) of 15.436 and an RQ3 ([2]; 48 hr, Laminarin alone) of 13.847. It also gave an RQ mean ([2]; 48 hr, Laminarin alone) of 15.255, an RQ1 ([2]; 72 hr, Laminarin + virus) of 0.9998 and an RQ2 ([2]; 72 hr, Laminarin + virus) of 10.127. It also gave an RQ3 ([2]; 72 hr, Laminarin + virus) of 0.9578, an RQ mean ([2]; 72 hr, Laminarin + virus) of 0.9901 and an RQ1 ([2]; 72 hr, Laminarin alone) of 16.204. For the same substance, the RQ2 ([2]; 72 hr, Laminarin alone) was 0.7923, the RQ3 ([2]; 72 hr, Laminarin alone) was 18.354 and the RQ mean ([2]; 72 hr, Laminarin alone) was 14.160. The “gene 9 expression” value ([2]; 72 hr, after the treatment with laminarin) was “no clear overexpression”.
